According to patent US12357650B2, “Methods and compositions for cancer therapies that include delivery of halogenated thymidines and thymidine phosphorlylase inhibitors in combination with radiation” (Shuttle Pharmaceuticals, Inc., priority 2017, dated 2025):
Values joined by “and” are separate entries in the source; they are usually repeats but may differ in a detail not shown here. Identical values can stand only once. Like-named read-outs stand apart in the source and are kept apart here.

Key:
[1] = Pharmacokinetic profile of IUdR (100 mg/kg) with and without Tipiracil in rats following single oral administration; type: in vivo, male Sprague-Dawley rats; details: single oral dose, Example 1, sub-heading prints PO-20 (Compound A) alone or + 7.9 (Compound B) mg/kg
Protocol: (§1) The purpose of this study was to determine the pharmacokinetics parameters of IUdR in male Sprague-Dawley rats following single oral (PO) administration the IUdR (i.e., Compound A) and Tipiracil (i.e., Compound B).
A control formulation was prepared where Compound A was dissolved in 5% DMSO+95% PBS to yield a final concentration of 10 mg/mL for oral administration. The prepared formulation was white suspension (pH˜7).
A second formulation was prepared where Compound A and Compound B were dissolved in 5% DMSO+95% PBS to yield a final concentration of 10 mg/mL (Compound A) and 0.79 mg/mL (Compound B) for oral administration. The prepared formulation was white suspension (pH˜7).
(§2) Animal Acquisition and Assignment to Study. A total of 8 male experimental Sprague-Dawley Rats were transferred from stock colony, and 6 animals were placed on study.
(§3) Dose Administration. The test article was administered via a single oral administration.
(§4) Sample Collection and Bioanalysis. Blood samples (approximately 200 μL/sample) were collected via jugular vein at Pre-dose and Post-dose (5 min, 15 min, 30 min, 1 h, 2 h, 4 h, 6 h, 8 h and 24 h). Blood samples were placed into tubes containing K2EDTA and centrifuged conditions at 8000 rpm for 6 minutes at 2-8° C. to separate plasma from the samples. Following centrifugation, the resulting plasma were transferred to clean tubes and stored frozen at −80° C. pending bioanalysis.
(§5) Pharmacokinetic Analysis. The PK analysis and interpretation of the results were conducted by Medicilon Preclinical Research (Shanghai) LLC. A non-compartmental module of WinNonlin® Professional was used to calculate parameters. Any BLQs (LLOQ=10.0 ng/mL for Compound A) were omitted when calculate the PK parameters.
(§6) Clinical Observations. No abnormal observations were noted.

[2] = Pharmacokinetic profile of IUdR (20 mg/kg) with and without Tipiracil in rats following single oral administration; type: in vivo, male Sprague-Dawley rats; details: for Plasma Concentration of Compound A / concentration at 0.083 hr / concentration at 0.25 hr / concentration at 0.5 hr / concentration at 1 hr: PO-20 mg/kg Compound A alone or + 7.9 mg/kg Compound B; for concentration at 0.083 hr / concentration at 0.25 hr / concentration at 0.5 hr / concentration at 1 hr: oral; for AUC(0-t) / Cmax: po
Protocol: as §1
A control formulation was prepared where Compound A was dissolved in 5% DMSO+95% PBS to yield a final concentration of 2 mg/mL for oral administration. The prepared formulation was colorless clear solution (pH˜8).
A second formulation was prepared where Compound A and Compound B were dissolved in 5% DMSO+95% PBS to yield a final concentration of 2 mg/mL (Compound A) and 0.79 mg/mL (Compound B) for oral administration. The prepared formulation was colorless clear solution (pH˜7).
as §2, §3, §4
as §5, with “(LLOQ=5.0” for “(LLOQ=10.0”
as §6

[3] = single oral dose, PO-20 (Compound A) alone or + 7.9 (Compound B) mg/kg, individual animals

With O=c1[nH]c(=O)n([C@H]2C[C@H](O)[C@@H](CO)O2)cc1I [Compound A, 5-iodo-2′-deoxyuridine] the Cmax ([1]; male, Sprague-Dawley, rat, plasma, po, 100 mg/kg, group mean, read-out: Cmax of Compound A, Mean) was 824 ng/mL, the AUC(0-t) ([1]; male, Sprague-Dawley, rat, plasma, po, 100 mg/kg, individual animals) was 3320 ng·h/mL and the Cmax ([1]; male, Sprague-Dawley, rat, plasma, po, 100 mg/kg, individual animals, read-out: Cmax of Compound A) was 944 ng/mL. For the same compound, the “AUC(0-t) of Compound A” value ([1]; individual animals) was 2214.79 ng·h/mL and 2609.22 ng·h/mL, the “Cmax of Compound A” value ([1]; individual animals) was 773.62 ng/mL and 755.39 ng/mL and the “Tmax of Compound A” value ([1]; individual animals) was 120 min. The “Plasma Concentration of Compound A” value ([2]; 0.083 hr, individual animals, LLOQ 5 ng/mL) was 25.16 ng/mL and 16.04 ng/mL, the “Plasma Concentration of Compound A” value ([2]; 0.25 hr, individual animals, LLOQ 5 ng/mL) was 54.67 ng/mL and 56.48 ng/mL and the “Plasma Concentration of Compound A” value ([2]; 0.5 hr, individual animals, LLOQ 5 ng/mL) was 63.23 ng/mL and 57.34 ng/mL. The “Plasma Concentration of Compound A” value ([2]; 1 hr, individual animals, LLOQ 5 ng/mL) was 19.19 ng/mL and 21.93 ng/mL, the “Plasma Concentration of Compound A” value ([2]; 2 hr, individual animals, LLOQ 5 ng/mL) was “BLQ” and the “Plasma Concentration of Compound A” value ([2]; 4 hr, individual animals, LLOQ 5 ng/mL) was “BLQ”. The “Plasma Concentration of Compound A” value ([2]; 6 hr, individual animals, LLOQ 5 ng/mL) was “BLQ”, the “Plasma Concentration of Compound A” value ([2]; 8 hr, individual animals, LLOQ 5 ng/mL) was “BLQ” and the “Plasma Concentration of Compound A” value ([2]; 24 hr, individual animals, LLOQ 5 ng/mL) was “BLQ”. It also gave a Tmax ([2]; male, Sprague-Dawley, rat, plasma, 20 mg/kg, single oral dose, PO-20 (Compound A) alone or + 7.9 (Compound B) mg/kg, individual animals) of 30 min, a concentration at 0.083 hr ([2]; male, Sprague-Dawley, rat, plasma, 20 mg/kg, 0.083 hr, group mean, read-out: Plasma Concentration of Compound A, Mean) of 21.9 ng/mL and a concentration at 0.083 hr ([2]; male, Sprague-Dawley, rat, plasma, 20 mg/kg, 0.083 hr, individual animals, LLOQ 5 ng/mL, read-out: Plasma Concentration of Compound A) of 24.5 ng/mL. It also gave a concentration at 0.25 hr ([2]; male, Sprague-Dawley, rat, plasma, 20 mg/kg, 0.25 hr, group mean, read-out: Plasma Concentration of Compound A, Mean) of 49.2 ng/mL, a concentration at 0.25 hr ([2]; male, Sprague-Dawley, rat, plasma, 20 mg/kg, 0.25 hr, individual animals, LLOQ 5 ng/mL, read-out: Plasma Concentration of Compound A) of 36.5 ng/mL and a concentration at 0.5 hr ([2]; male, Sprague-Dawley, rat, plasma, 20 mg/kg, 0.5 hr, group mean, read-out: Plasma Concentration of Compound A, Mean) of 57.7 ng/mL. It also gave a concentration at 0.5 hr ([2]; male, Sprague-Dawley, rat, plasma, 20 mg/kg, 0.5 hr, individual animals, LLOQ 5 ng/mL, read-out: Plasma Concentration of Compound A) of 52.5 ng/mL, a concentration at 1 hr ([2]; male, Sprague-Dawley, rat, plasma, 20 mg/kg, 1 hr, group mean, read-out: Plasma Concentration of Compound A, Mean) of 22.8 ng/mL and a concentration at 1 hr ([2]; male, Sprague-Dawley, rat, plasma, 20 mg/kg, 1 hr, individual animals, LLOQ 5 ng/mL, read-out: Plasma Concentration of Compound A) of 27.2 ng/mL. For the same compound, the AUC(0-t) ([2]; male, Sprague-Dawley, rat, plasma, 20 mg/kg, oral administration, Example 2 (20 mg/kg IUdR, ± 7.9 mg/kg Tipiracil), comparison table, mean, read-out: AUC(0-t) of Compound A) was 40.3 ng·h/mL, the Cmax ([2]; male, Sprague-Dawley, rat, plasma, 20 mg/kg, oral administration, Example 2 (20 mg/kg IUdR, ± 7.9 mg/kg Tipiracil), comparison table, mean, read-out: Cmax of Compound A) was 57.7 ng/mL and the AUC(0-t) ([2]; male, Sprague-Dawley, rat, plasma, 20 mg/kg, single oral dose, PO-20 (Compound A) alone or + 7.9 (Compound B) mg/kg, group mean, read-out: AUC(0-t) of Compound A, Mean) was 40.3 ng·h/mL. It also gave a Cmax ([2]; male, Sprague-Dawley, rat, plasma, 20 mg/kg, single oral dose, PO-20 (Compound A) alone or + 7.9 (Compound B) mg/kg, group mean, read-out: Cmax of Compound A, Mean) of 57.7 ng/mL, an AUC(0-t) ([2]; male, Sprague-Dawley, rat, plasma, 20 mg/kg, single oral dose, PO-20 (Compound A) alone or + 7.9 (Compound B) mg/kg, individual animals, read-out: AUC(0-t) of Compound A) of 40.8 ng·h/mL and a Cmax ([2]; male, Sprague-Dawley, rat, plasma, 20 mg/kg, single oral dose, PO-20 (Compound A) alone or + 7.9 (Compound B) mg/kg, individual animals, read-out: Cmax of Compound A) of 57.3 ng/mL. The “AUC(0-t) of Compound A” value [2, 3] was 37.15 ng·h/mL and 43.05 ng·h/mL and the “Cmax of Compound A” value [2, 3] was 52.45 ng/mL and 63.23 ng/mL.
